Laboratory results reported in ChEMBL document CHEMBL4138063, “Discovery of Decamidine as a New and Potent PRMT1 Inhibitor” (Medchemcomm, 2017).
Active and inactive are the calls of the source. The calls are words filed in the database; no cut-off is given here.

Key:
[1] = target: T1, Protein arginine N-methyltransferase 5 (Homo sapiens, UniProt O14744); assay: Inhibition of PRMT5 (unknown origin) assessed as reduction in methyl transfer from [3H]-SAM to biotinylated histone H4 peptide H4-20-Biotin at 100 uM pre-incubated for 3 mins before [3H]-SAM addition and measured after 45 mins by scintillation proximity assay
[2] = target: T1, Protein arginine N-methyltransferase 5; assay: Inhibition of PRMT5 (unknown origin) assessed as reduction in methyl transfer from [3H]-SAM to biotinylated histone H4 peptide H4-20-Biotin at 10 uM pre-incubated for 3 mins before [3H]-SAM addition and measured after 45 mins by scintillation proximity assay
[3] = target: T1, Protein arginine N-methyltransferase 5; assay: Inhibition of PRMT5 (unknown origin) assessed as reduction in methyl transfer from [3H]-SAM to biotinylated histone H4 peptide H4-20-Biotin pre-incubated for 3 mins before [3H]-SAM addition and measured after 45 mins by scintillation proximity assay
[4] = target: Protein arginine N-methyltransferase 1 (Homo sapiens, UniProt Q99873); assay: Inhibition of PRMT1 (unknown origin) assessed as reduction in methyl transfer from [3H]-SAM to biotinylated histone H4 peptide H4-20-Biotin at 10 uM pre-incubated for 3 mins before [3H]-SAM addition and measured after 15 mins by scintillation proximity assay
Sequence of Protein arginine N-methyltransferase 1 (Q99873 whole entry): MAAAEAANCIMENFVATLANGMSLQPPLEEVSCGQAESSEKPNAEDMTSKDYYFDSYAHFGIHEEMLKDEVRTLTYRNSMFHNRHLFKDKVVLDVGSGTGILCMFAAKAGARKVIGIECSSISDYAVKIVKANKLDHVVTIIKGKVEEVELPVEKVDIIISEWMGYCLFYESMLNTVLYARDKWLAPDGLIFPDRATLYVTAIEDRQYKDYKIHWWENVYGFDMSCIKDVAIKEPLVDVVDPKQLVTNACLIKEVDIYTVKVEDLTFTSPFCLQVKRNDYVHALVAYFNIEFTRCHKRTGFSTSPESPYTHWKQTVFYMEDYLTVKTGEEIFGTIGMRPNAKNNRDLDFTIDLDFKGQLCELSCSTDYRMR

T1 sequence (O14744 whole entry): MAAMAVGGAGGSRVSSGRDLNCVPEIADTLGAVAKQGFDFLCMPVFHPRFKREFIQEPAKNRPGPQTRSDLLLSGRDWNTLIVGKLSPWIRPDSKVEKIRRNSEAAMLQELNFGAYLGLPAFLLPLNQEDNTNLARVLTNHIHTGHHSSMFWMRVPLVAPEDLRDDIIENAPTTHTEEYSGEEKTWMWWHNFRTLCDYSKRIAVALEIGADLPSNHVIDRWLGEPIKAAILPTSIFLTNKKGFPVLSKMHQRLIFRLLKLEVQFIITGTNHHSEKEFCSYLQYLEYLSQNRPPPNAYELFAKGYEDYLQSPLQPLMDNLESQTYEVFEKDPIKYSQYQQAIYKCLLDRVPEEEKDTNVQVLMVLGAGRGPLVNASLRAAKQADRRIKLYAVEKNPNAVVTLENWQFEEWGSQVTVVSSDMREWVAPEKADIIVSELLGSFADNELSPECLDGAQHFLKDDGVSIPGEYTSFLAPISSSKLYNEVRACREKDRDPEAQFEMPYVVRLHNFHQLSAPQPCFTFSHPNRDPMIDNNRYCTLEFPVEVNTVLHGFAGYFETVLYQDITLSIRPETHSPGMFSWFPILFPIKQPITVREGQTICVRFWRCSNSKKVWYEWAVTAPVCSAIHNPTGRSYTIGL

Compound | inhibition [1] | inhibition [2] | IC50 [3] [µM] | IC50 [4] [µM]
N=C(N)c1ccc(Oc2ccc(C(=N)N)cc2)cc1 | inactive | inactive | – | –
N=C(N)c1ccc(OCCCCCCOc2ccc(C(=N)N)cc2)cc1 [HEXAMIDINE] | inactive | inactive | 357 | –
N=C(N)c1ccc(OCCCCOc2ccc(C(=N)N)cc2)cc1 | inactive | inactive | – | –
CC(CCCOc1ccc(C(=N)N)cc1)Oc1ccc(C(=N)N)cc1 (configuration not stated) | inactive | inactive | – | –
N=C(N)c1ccc(OCCCOc2ccc(C(=N)N)cc2)cc1 | inactive | inactive | – | –
N=C(N)c1ccc(-c2ccc(-c3ccc(C(=N)N)cc3)o2)cc1 [FURAMIDINE] | 50% | – | 256 | 22
N=C(N)c1ccc(/C=C/c2ccc(C(=N)N)cc2)cc1 [STILBAMIDINE] | – | – | 712 | –
N=C(N)c1ccc(OCCCCCCCCCCOc2ccc(C(=N)N)cc2)cc1 | 50% | – | 43 | –
N=C(N)c1ccc(OCCOc2ccc(C(=N)N)cc2)cc1 | inactive | inactive | – | –
N=C(N)c1ccc(OCOc2ccc(C(=N)N)cc2)cc1 | 50% | – | – | –
N=C(N)c1ccc(OC/C=C/COc2ccc(C(=N)N)cc2)cc1 | inactive | inactive | – | –
